Test results from ChEMBL document CHEMBL1201862, “PubChem BioAssay data set” (2004).
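A five-concentration, 48-hour dose response in 96-well plates underlies each endpoint, interpolated linearly between surrounding concentrations. The concentration for 50% growth inhibition is given as GI50.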 Active and inactive are the calls of the source. Rule as the data show it: active = GI50 up to about 1.1 µM and inactive = higher. Peptide text beside a SMILES is read from it.

Key:
Assay in all cases: growth of human tumour cells (NCI), 48 h
786-0 = tested on: 786-0
A498 = tested on: A498
A549 = tested on: A549
ACHN = tested on: ACHN
BT-549 = tested on: BT-549
CAKI-1 = tested on: CAKI-1
CCRF-CEM = tested on: CCRF-CEM
COLO 205 = tested on: COLO 205
DLD-1 = tested on: DLD-1
DMS-114 = tested on: DMS-114
DMS-273 = tested on: DMS-273
DU-145 = tested on: DU-145
EKVX = tested on: EKVX
HCC 2998 = tested on: HCC 2998
HCT-116 = tested on: HCT-116
HCT-15 = tested on: HCT-15
HL-60 = tested on: HL-60
HOP-18 = tested on: HOP-18
HOP-62 = tested on: HOP-62
HOP-92 = tested on: HOP-92
HT-29 = tested on: HT-29
Hs-578T = tested on: Hs-578T
IGROV-1 = tested on: IGROV-1
K562 = tested on: K562
KM-20L2 = tested on: KM-20L2
KM12 = tested on: KM12
LOX IMVI = tested on: LOX IMVI
LXFL 529 = tested on: LXFL 529
M14 = tested on: M14
M19-MEL = tested on: M19-MEL
MCF7 = tested on: MCF7
MDA-MB-231 = tested on: MDA-MB-231
MDA-MB-435 = tested on: MDA-MB-435
MDA-N = tested on: MDA-N
MOLT-4 = tested on: MOLT-4
Malme-3M = tested on: Malme-3M
NCI-H226 = tested on: NCI-H226
NCI-H23 = tested on: NCI-H23
NCI-H460 = tested on: NCI-H460
NCI-H522 = tested on: NCI-H522
NCI/ADR-RES = tested on: NCI/ADR-RES
OVCAR-3 = tested on: OVCAR-3
OVCAR-4 = tested on: OVCAR-4
OVCAR-5 = tested on: OVCAR-5
OVCAR-8 = tested on: OVCAR-8
PC-3 = tested on: PC-3
RPMI-8226 = tested on: RPMI-8226
RXF 393 = tested on: RXF 393
RXF 631 = tested on: RXF 631
SF-268 = tested on: SF-268
SF-295 = tested on: SF-295
SF-539 = tested on: SF-539
SK-MEL-28 = tested on: SK-MEL-28
SK-MEL-2 = tested on: SK-MEL-2
SK-MEL-5 = tested on: SK-MEL-5
SK-OV-3 = tested on: SK-OV-3
SN12C = tested on: SN12C
SNB-19 = tested on: SNB-19
SNB-75 = tested on: SNB-75
SNB-78 = tested on: SNB-78
SR = tested on: SR
SW-620 = tested on: SW-620
T47D = tested on: T47D
TK-10 = tested on: TK-10
U-251 = tested on: U-251
UACC-257 = tested on: UACC-257
UACC-62 = tested on: UACC-62
UO-31 = tested on: UO-31
XF498 = tested on: XF498

Nc1ccc(S(=O)(=O)Nc2ccc(Nc3c4ccccc4nc4ccccc34)cc2)cc1
GI50 (786-0): 0.0413 µM (active) | GI50 (A498): 0.0538 µM (active) | GI50 (A549): < 0.01 µM (active) | GI50 (ACHN): < 0.0114 µM (active) | GI50 (BT-549): 0.0906 µM (active) | GI50 (CAKI-1): < 0.0126 µM (active) | GI50 (CCRF-CEM): < 0.01 µM (active) | GI50 (COLO 205): 0.483 µM (active) | GI50 (DLD-1): 1.06 µM (active) | GI50 (DMS-114): < 0.0102 µM (active) | GI50 (DMS-273): < 0.01 µM (active) | GI50 (DU-145): < 0.01 µM (active) | GI50 (EKVX): 1.82 µM (inactive) | GI50 (HCC 2998): 0.164 µM (active) | GI50 (HCT-116): 0.165 µM (active) | GI50 (HCT-15): 0.579 µM | GI50 (HL-60): < 0.0102 µM (active) | GI50 (HOP-18): 0.43 µM (active) | GI50 (HOP-62): < 0.0119 µM (active) | GI50 (HOP-92): 0.5 µM (active) | GI50 (HT-29): 0.198 µM (active) | GI50 (Hs-578T): 1.86 µM (inactive) | GI50 (IGROV-1): 0.769 µM (active) | GI50 (K562): 0.0716 µM (active) | GI50 (KM-20L2): 0.215 µM (active) | GI50 (KM12): 0.169 µM (active) | GI50 (LOX IMVI): 0.015 µM (active) | GI50 (LXFL 529): 3.91 µM (inactive) | GI50 (M14): 0.0298 µM (active) | GI50 (M19-MEL): 0.115 µM (active) | GI50 (MCF7): < 0.01 µM (active) | GI50 (MDA-MB-231): 2.08 µM (inactive) | GI50 (MDA-MB-435): 9.33 µM (inactive) | GI50 (MDA-N): 10.2 µM (inactive) | GI50 (MOLT-4): < 0.01 µM (active) | GI50 (Malme-3M): 0.0675 µM (active) | GI50 (NCI-H226): 0.0101 µM (active) | GI50 (NCI-H23): 0.0185 µM (active) | GI50 (NCI-H460): 0.0347 µM (active) | GI50 (NCI-H522): 0.0695 µM (active) | GI50 (NCI/ADR-RES): 4.83 µM (inactive) | GI50 (OVCAR-3): 0.245 µM (active) | GI50 (OVCAR-4): 3.66 µM (inactive) | GI50 (OVCAR-5): 0.164 µM (active) | GI50 (OVCAR-8): 0.041 µM (active) | GI50 (PC-3): 0.0555 µM (active) | GI50 (RPMI-8226): 0.0164 µM (active) | GI50 (RXF 393): 0.316 µM (active) | GI50 (RXF 631): 0.284 µM (active) | GI50 (SF-268): 0.0168 µM (active) | GI50 (SF-295): 0.0127 µM (active) | GI50 (SF-539): 0.0166 µM (active) | GI50 (SK-MEL-28): 0.738 µM (active) | GI50 (SK-MEL-2): 0.769 µM (active) | GI50 (SK-MEL-5): 0.0199 µM (active) | GI50 (SK-OV-3): 0.0174 µM (active) | GI50 (SN12C): < 0.01 µM (active) | GI50 (SNB-19): 0.0182 µM (active) | GI50 (SNB-75): 0.0158 µM (active) | GI50 (SNB-78): 3.78 µM (inactive) | GI50 (SR): < 0.01 µM (active) | GI50 (SW-620): 0.0485 µM (active) | GI50 (T47D): 0.0637 µM (active) | GI50 (TK-10): 0.566 µM (active) | GI50 (U-251): 0.0154 µM (active) | GI50 (UACC-257): 1.87 µM (inactive) | GI50 (UACC-62): 0.0213 µM (active) | GI50 (UO-31): 0.195 µM (active) | GI50 (XF498): 3.61 µM (inactive)

CC(C)CC(NC(=O)C(CC(C)C)NC(=O)C(Cc1c[nH]cn1)NC(=O)C(C)NC(=O)C(NC(=O)C(C)NC(=O)C(Cc1c[nH]c2ccccc12)NC(=O)C(CCC(=O)O)NC(=O)C(N)Cc1ccccc1)C(C)C)C(N)=O (centres undefined) (H-FEWAVAHLL-NH2; configuration not given here)
GI50 (786-0): > 12.5 µM (inactive) | GI50 (A498): > 12.5 µM (inactive) | GI50 (A549): > 12.5 µM (inactive) | GI50 (ACHN): > 100 µM (inactive) | GI50 (CAKI-1): > 12.5 µM (inactive) | GI50 (CCRF-CEM): > 12.5 µM (inactive) | GI50 (COLO 205): > 12.5 µM (inactive) | GI50 (DLD-1): > 100 µM (inactive) | GI50 (DMS-114): > 100 µM (inactive) | GI50 (DMS-273): > 100 µM (inactive) | GI50 (DU-145): > 12.5 µM (inactive) | GI50 (EKVX): > 12.5 µM (inactive) | GI50 (HCC 2998): > 12.5 µM (inactive) | GI50 (HCT-116): > 12.5 µM (inactive) | GI50 (HCT-15): > 12.5 µM | GI50 (HL-60): > 12.5 µM (inactive) | GI50 (HOP-18): > 100 µM (inactive) | GI50 (HOP-62): > 12.5 µM (inactive) | GI50 (HT-29): > 12.5 µM (inactive) | GI50 (Hs-578T): > 12.5 µM (inactive) | GI50 (IGROV-1): > 12.5 µM (inactive) | GI50 (K562): > 12.5 µM (inactive) | GI50 (KM-20L2): > 100 µM (inactive) | GI50 (KM12): > 12.5 µM (inactive) | GI50 (LOX IMVI): > 12.5 µM (inactive) | GI50 (LXFL 529): > 100 µM (inactive) | GI50 (M14): > 12.5 µM (inactive) | GI50 (M19-MEL): > 100 µM (inactive) | GI50 (MCF7): > 12.5 µM (inactive) | GI50 (MDA-MB-231): > 12.5 µM (inactive) | GI50 (MDA-MB-435): > 12.5 µM (inactive) | GI50 (MDA-N): > 12.5 µM (inactive) | GI50 (MOLT-4): > 12.5 µM (inactive) | GI50 (Malme-3M): > 12.5 µM (inactive) | GI50 (NCI-H226): > 12.5 µM (inactive) | GI50 (NCI-H23): > 12.5 µM (inactive) | GI50 (NCI-H460): > 12.5 µM (inactive) | GI50 (NCI-H522): > 12.5 µM (inactive) | GI50 (NCI/ADR-RES): > 12.5 µM (inactive) | GI50 (OVCAR-3): > 12.5 µM (inactive) | GI50 (OVCAR-4): > 12.5 µM (inactive) | GI50 (OVCAR-5): > 12.5 µM (inactive) | GI50 (OVCAR-8): > 12.5 µM (inactive) | GI50 (PC-3): > 12.5 µM (inactive) | GI50 (RPMI-8226): > 12.5 µM (inactive) | GI50 (RXF 393): > 12.5 µM (inactive) | GI50 (RXF 631): > 100 µM (inactive) | GI50 (SF-268): > 12.5 µM (inactive) | GI50 (SF-295): > 12.5 µM (inactive) | GI50 (SF-539): > 12.5 µM (inactive) | GI50 (SK-MEL-28): 63.4 µM (inactive) | GI50 (SK-MEL-2): > 12.5 µM (inactive) | GI50 (SK-MEL-5): > 12.5 µM (inactive) | GI50 (SK-OV-3): > 12.5 µM (inactive) | GI50 (SN12C): > 12.5 µM (inactive) | GI50 (SNB-19): > 100 µM (inactive) | GI50 (SNB-75): > 100 µM (inactive) | GI50 (SNB-78): > 100 µM (inactive) | GI50 (SW-620): > 12.5 µM (inactive) | GI50 (T47D): > 12.5 µM (inactive) | GI50 (U-251): > 12.5 µM (inactive) | GI50 (UACC-257): > 12.5 µM (inactive) | GI50 (UACC-62): > 12.5 µM (inactive) | GI50 (UO-31): > 12.5 µM (inactive) | GI50 (XF498): > 100 µM (inactive)
